Earlier results on one molecule are cited in patent publication US8288391B2, “Pyrazinoylguanidine compounds for use as taste modulators” (Parion Sciences, Inc., priority 2007, dated 2012).

The target of this data set is T1, ENaC (Rattus norvegicus, UniProt P37089+P37090+P37091).
T1 construct: receptor cells in taste buds and some surrounding non-taste epithelia) through apical membrane ENaC; host or cells: rat in vivo: taste nerve (chorda tympani) response, with endogenous channel of lingual taste receptor cells
T1 sequence (P37089 1-698): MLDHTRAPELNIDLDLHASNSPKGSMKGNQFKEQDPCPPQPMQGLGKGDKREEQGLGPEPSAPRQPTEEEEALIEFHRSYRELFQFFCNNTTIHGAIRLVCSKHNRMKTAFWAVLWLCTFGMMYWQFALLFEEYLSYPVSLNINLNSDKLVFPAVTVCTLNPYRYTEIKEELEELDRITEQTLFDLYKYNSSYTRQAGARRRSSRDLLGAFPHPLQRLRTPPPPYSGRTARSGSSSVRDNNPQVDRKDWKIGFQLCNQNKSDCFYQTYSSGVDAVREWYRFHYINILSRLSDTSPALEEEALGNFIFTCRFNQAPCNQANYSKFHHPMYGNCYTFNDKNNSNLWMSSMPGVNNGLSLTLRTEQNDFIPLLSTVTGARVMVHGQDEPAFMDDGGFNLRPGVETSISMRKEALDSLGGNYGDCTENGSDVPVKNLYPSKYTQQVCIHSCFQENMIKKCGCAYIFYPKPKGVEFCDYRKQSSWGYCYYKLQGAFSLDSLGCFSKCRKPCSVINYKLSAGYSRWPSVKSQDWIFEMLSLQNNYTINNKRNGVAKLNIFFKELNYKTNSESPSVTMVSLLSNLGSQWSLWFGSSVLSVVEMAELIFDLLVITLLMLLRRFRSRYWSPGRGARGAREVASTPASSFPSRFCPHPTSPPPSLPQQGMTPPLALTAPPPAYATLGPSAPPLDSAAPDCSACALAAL
T1 sequence (P37090 1-638): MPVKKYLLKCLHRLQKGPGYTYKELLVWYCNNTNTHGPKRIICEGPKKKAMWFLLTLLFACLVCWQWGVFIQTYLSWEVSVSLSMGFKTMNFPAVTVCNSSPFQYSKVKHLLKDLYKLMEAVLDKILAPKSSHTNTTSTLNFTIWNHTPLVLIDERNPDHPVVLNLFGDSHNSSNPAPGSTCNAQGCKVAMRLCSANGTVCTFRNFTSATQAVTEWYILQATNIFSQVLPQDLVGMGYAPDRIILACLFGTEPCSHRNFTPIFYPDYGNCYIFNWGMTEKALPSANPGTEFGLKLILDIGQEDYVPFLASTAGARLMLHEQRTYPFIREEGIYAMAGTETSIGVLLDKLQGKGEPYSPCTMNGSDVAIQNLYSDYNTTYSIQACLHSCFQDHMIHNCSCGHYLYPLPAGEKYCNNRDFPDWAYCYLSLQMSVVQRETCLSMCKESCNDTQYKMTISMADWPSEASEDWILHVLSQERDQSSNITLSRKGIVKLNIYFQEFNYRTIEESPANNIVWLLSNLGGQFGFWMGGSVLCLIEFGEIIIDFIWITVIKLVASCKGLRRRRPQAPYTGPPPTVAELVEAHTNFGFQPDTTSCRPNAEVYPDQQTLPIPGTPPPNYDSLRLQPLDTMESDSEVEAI
T1 sequence (P37091 1-650): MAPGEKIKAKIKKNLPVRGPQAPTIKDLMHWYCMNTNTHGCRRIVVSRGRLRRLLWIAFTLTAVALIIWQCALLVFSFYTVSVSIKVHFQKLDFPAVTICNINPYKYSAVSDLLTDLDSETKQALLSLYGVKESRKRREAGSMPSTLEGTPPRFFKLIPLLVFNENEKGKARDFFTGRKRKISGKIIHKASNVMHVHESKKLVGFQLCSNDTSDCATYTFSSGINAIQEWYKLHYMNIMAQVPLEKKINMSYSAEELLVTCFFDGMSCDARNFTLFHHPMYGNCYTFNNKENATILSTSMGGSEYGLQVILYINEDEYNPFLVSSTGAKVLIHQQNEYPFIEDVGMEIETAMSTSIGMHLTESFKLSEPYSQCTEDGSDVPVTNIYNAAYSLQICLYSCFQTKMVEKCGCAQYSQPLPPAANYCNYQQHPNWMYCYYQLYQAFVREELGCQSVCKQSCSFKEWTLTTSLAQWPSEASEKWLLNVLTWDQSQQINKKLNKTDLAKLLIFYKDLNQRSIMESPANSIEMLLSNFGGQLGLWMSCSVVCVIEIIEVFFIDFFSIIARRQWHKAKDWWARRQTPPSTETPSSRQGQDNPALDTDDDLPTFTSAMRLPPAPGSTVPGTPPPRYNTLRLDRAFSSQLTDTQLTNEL
Conditions: rats; 100 mM NaCl; share of total taste response.

As to `N=C(N)NC(=O)c1nc(Cl)c(N)nc1N` [amiloride], the “amiloride-sensitive part of the total response to NaCl” value is recorded as 75%-80%.
